We go through 1 molecule from paper doi:10.1101/382226v2 (biorxiv, 2019).

For one assay, the target named is T1, NOX4 (Homo sapiens, UniProt Q9NPH5).
T1 sequence (Q9NPH5 1-578): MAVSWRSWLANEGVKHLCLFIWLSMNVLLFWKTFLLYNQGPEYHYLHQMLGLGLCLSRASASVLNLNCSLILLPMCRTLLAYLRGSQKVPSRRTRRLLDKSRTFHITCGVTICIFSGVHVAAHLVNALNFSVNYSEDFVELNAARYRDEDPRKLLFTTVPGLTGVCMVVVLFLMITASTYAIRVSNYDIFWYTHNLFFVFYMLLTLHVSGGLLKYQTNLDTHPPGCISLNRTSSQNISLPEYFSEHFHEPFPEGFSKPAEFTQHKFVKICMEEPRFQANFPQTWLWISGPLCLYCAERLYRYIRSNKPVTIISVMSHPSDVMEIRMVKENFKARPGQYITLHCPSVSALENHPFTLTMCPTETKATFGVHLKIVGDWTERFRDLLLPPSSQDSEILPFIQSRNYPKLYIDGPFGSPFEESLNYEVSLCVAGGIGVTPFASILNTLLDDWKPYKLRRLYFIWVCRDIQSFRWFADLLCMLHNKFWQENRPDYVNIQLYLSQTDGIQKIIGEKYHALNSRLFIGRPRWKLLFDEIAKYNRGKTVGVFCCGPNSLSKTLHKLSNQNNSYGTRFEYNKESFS
T1 sequence (P13498 2-195 partner): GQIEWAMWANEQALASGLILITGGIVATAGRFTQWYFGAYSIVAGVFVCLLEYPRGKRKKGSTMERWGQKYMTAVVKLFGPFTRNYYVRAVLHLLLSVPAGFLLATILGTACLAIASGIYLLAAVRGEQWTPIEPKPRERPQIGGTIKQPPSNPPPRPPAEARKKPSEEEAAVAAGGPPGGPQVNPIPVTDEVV
The assay can be described thus: Amplex Red/HRP H2O2 fluorescence, intact transfected HEK293 cells. Format: cell-based.

The target in another assay is NOX1 (Homo sapiens, UniProt Q9Y5S8). The assay can be described thus: luminol/HRP chemiluminescence, intact transfected HEK293 cells. Format: cell-based.
Sequence of NOX1 (Q9Y5S8 whole entry, one chain of several): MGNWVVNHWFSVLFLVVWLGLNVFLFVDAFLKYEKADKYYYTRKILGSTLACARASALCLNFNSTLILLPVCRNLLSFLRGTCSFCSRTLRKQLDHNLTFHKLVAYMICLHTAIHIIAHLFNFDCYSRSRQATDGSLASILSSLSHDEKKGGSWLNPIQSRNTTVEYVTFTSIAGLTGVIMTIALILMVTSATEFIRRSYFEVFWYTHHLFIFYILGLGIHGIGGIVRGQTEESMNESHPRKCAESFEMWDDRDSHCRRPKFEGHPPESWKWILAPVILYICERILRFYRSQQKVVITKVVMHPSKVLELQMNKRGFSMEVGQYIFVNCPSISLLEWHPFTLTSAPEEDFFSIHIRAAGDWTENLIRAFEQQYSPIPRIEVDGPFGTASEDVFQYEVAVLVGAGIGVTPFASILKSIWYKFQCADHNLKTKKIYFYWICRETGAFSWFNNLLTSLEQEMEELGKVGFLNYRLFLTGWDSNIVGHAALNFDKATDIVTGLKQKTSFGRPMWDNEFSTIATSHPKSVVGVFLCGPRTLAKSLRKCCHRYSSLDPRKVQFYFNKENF
Sequence of NOX1 (Q8NFA2 whole entry partner, one chain of several): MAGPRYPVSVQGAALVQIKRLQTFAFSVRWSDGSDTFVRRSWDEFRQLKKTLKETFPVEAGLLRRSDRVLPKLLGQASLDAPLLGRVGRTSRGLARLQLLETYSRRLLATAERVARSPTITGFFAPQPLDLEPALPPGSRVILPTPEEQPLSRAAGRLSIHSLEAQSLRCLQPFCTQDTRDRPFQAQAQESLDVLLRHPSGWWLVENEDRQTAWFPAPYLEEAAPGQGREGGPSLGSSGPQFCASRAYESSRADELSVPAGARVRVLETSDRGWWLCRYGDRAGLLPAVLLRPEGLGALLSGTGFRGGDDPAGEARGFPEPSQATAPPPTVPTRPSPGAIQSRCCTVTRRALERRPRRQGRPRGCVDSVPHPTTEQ
Sequence of NOX1 (Q86UR1 whole entry partner, one chain of several): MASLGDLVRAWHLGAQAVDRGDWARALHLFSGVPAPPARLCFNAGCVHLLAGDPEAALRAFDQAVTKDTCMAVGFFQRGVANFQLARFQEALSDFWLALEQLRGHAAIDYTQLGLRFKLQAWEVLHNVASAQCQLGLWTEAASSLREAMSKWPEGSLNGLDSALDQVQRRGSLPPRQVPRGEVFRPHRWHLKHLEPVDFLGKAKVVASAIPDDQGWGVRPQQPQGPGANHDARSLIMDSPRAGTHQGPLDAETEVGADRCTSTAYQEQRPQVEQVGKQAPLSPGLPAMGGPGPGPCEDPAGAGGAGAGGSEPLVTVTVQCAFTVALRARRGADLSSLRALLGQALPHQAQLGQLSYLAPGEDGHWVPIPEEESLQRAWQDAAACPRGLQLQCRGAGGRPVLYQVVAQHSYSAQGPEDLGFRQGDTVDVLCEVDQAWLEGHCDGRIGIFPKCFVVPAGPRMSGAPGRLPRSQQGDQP

With `c1ccc2c(c1)Nc1nc3ccccc3nc1N2` [ML090, 5,12-Dihydroquinoxalino(2,3-B)quinoxaline], the IC50 (commonly the midpoint of a concentration-inhibition curve) is 20.4 nM on NOX4 and 25.1 nM against NOX1.
